The subject of assay [1] is IL-6 secretion in HFLS-RA cells. Kind of assay: IL-6 secretion in stimulated HFLS-RA cells (ELISA). The format is cell-based, human. As to conditions: 6 hours. How it is done:
The mean±SEM (n=3) values were determined by a Dunnett's test.
(§1) The values presented are the mean±SEM (n=2).
(§2) The enzyme-linked immunosorbent assay (ELISA) is a quantitative measurement based on sandwich-based enzyme linking, using a protein-specific capture antibody to determine the levels of single or multiple chemokines and cytokines.
This finding was extended to human cells relevant to autoimmune diseases. Human fibroblast-like synoviocytes (HFLS) are present in the synovial fluid of joint capsules and produce harmful molecules that contribute to joint destruction and the exacerbation of the disease in rheumatoid arthritis patients. […] The cells were then stimulated with IL-1β (FIG. 16) or LPS (FIG. 17), in the absence (control; IL-1β only) or presence of VR23 or HCQ. HCQ was included for comparison because it is often used to treat rheumatoid arthritis. […] For “VR23 only” samples, 5 μM VR23 was used. Fifty thousand HFLS cells per mL were used for the experiment. Cytokine levels in cell culture supernatants were determined by a single-analyte ELISA. […] Fifty thousand HFLS cells per mL were used for the experiment. The cytokine secretion was measured in cell culture supernatants by a single-analyte ELISA.
For orientation: An ELISA detects its analyte on a solid surface through an enzyme-linked reagent.

Assay [2] concerns IL-6 and TNF-α secretion in human PBMC. In words: IL-6 and TNF-α in PHA-p-stimulated human PBMC (ELISA). The format is cell-based. Conditions: PHA-p 10 μg/mL, 6 hours. How it is done:
as §1, §2
Data in FIG. 14 show the levels of IL-6 (upper plot) and TNF-α (lower plot) in human PBMC (1×10^6/mL cells) stimulated with 10 μg/mL phytohemagglutinin-p (PHA-p) (10 μg/mL) for 6 hours, in the absence (control) or presence of varying concentrations of VR23 (0.38, 0.75, 1.5, 3 or 6 μM) or BTZ (6.25, 12.5, 25 or 50 nM). The measurement was carried out with a single-analyte ELISA.

The test system of assay [3] is BALB/c mice with ALI caused by LPS. Kind of assay: LPS-induced acute lung injury in mice, bronchoalveolar fluid cell counts and TNF-α. It is filed as in vivo, mouse. As to conditions: 24 hours, VR23 30 mg/kg intraperitoneally.
From the text: as §2
Six to eight week old female BALB/c mice strain 028 (Charles River Laboratories, QC, Canada) were fed regularly with laboratory chow and water upon arrival at the Laurentian University Animal Care Facility (Sudbury, ON, Canada). To determine a useful dose of LPS, three mice per group were treated for 24 hours with the following three different conditions: (i) no LPS, (ii) 0.25 mg of LPS per kg of body weight, and (iii) 0.50 mg of LPS per kg of body weight. […] After the animals were sacrificed, the bronchoalveolar lavage fluid (BALF) of each mouse was collected and analyzed for LPS-induced inflammatory responses. […] Bronchoalveolar lavage fluid was collected and the number of cells infiltrated into the bronchoalveolar fluid were counted (FIG. 2). […]
Toward this goal, a useful LPS dose to induce TNF-α in the mouse bronchoalveolar fluid was first obtained. […] To illustrate the anti-inflammatory property of VR23, the level of TNF-α in the BALF was measured at 24-hour post-treatment. […] The levels of TNF-α were determined at 24-hour post-LPS stimulation (0.4 mg/kg), in the absence (controls) or presence of DEX (4 mg/kg) or VR23 (30 mg/kg).

Assay [4] concerns CQ-resistant P. falciparum ItG. In words: Anti-parasitic assay (SYBR Green I), ItG strain. As to conditions: Plasmodium falciparum, 48 h. It is filed as cell-based. The protocol: The CQ-resistant P. falciparum ItG and the CQ-sensitive 3D7 strains were maintained and assays carried out as described previously^25. Briefly, P. falciparum strains were maintained in RPMI 1640 culture medium supplemented with 10% human serum, 25 mM HEPES, gentamicin, and 50 μM of hypoxanthine. The anti-parasitic assay was carried out as described previously^25. Briefly, a compound gradient was generated across a 96-well assay plate; a constant number of parasites added in 50 μL of the culture medium; allowed to grow for 48 hours; and followed by the measurement of DNA amounts (i.e., fluorescence) using SYBR Green I. The IC50 value is the 50% point between alive and dead for which a three-parameter fit was used.
VR23 is a derivative of CQ; a well-known anti-malarial drug. […] ItG and […] P. falciparum strains are CQ-resistant and CQ-sensitive strains, respectively. IC50 values were calculated by S.E.M (Table 2).

SMILES strings stand for the structures.

For the molecule `O=[N+]([O-])c1ccc(S(=O)(=O)N2CCN(c3ccnc4cc(Cl)ccc34)CC2)c([N+](=O)[O-])c1` [VR23, 7-chloro-4-(4-(2,4-dinitrophenylsulfonyl)piperazin-1-yl)quinoline], in assay [1] (HFLS-RA, IL-1β 10 ng/mL, VR23 2.5-10 μM, HCQ 15 or 30 μM), the “IL-6 secretion, dose dependence” value was “decreases in a dose dependent manner”. The “secretion of IL-6” value in assay [1] (HFLS-RA, LPS 100 ng/mL, 5 or 10 μM) is “decreased substantially”. Also, the “level of IL-6 secretion, HFLS-RA versus HFLS-N” value in assay [1] (IL-1β 10 ng/mL, VR23 5 μM) is listed as “reduces the level of IL-6 secretion more effectively on HFLS-RA than HFLS-N”. The “IL-6 reduction, 5 μM VR23 versus 30 μM HCQ” value in assay [1] (synovial cells from rheumatoid arthritis patients, IL-1β or LPS) is given as “significantly more effective”. In assay [2] (VR23 1.5 μM, BTZ 6 nM), the “PHA-induced IL-6” value is on record as “completely prevented”. In addition, the “PHA-induced TNF-α” value in assay [2] (VR23 3.0 μM, BTZ 4× the IC50 dose) is “completely prevented”. Also, the “cytokine secretion (IL-6, TNF-α), dose dependence” value in assay [2] (VR23 0.38-6 μM) is “decreases in a dose dependent manner”. For the same molecule, the “total number of cells recruited into the bronchoalveolar space” value in assay [3] (LPS 0.4 mg/kg intranasally) is on record as “completely prevented”. Further, the “level of TNF-α in bronchoalveolar lavage fluid” value in assay [3] (LPS 0.4 mg/kg) is on record as “effectively reduces the level of TNF-α”. Besides, in assay [4], the IC50 amounted to 117 nM.

The term IC50 denotes the concentration needed to halve the response being measured. Read a low IC50 as inhibition by little substance.

The record behind these values is patent US11357774B2, “Use of a quinoline sulfonyl compound for treatment of inflammation, inflammatory disorders, autoimmune disorders and malaria” (priority 2019, dated 2022).
